Source: US20260184662A1, “COMPOSITE OF ACID AND SALT, AND PREPARATION METHOD THEREFOR” (NANJING NUTRABUILDING BIO-TECH CO., LTD., priority 2022, published 2026)
Read-outs that look alike come from different tables or passages of the source.

Tests used:
[1] = Determination of moisture contents with KF moisture meter at different time points; type: physicochemical; settings: temperature 23° C., humidity 92.5%
Source text: (§1) For R-3-hydroxybutyric acid, potassium R-3-hydroxybutyrate, mixture of R-3-hydroxybutyric acid and potassium R-3-hydroxybutyrate, and R-3-hydroxybutyric acid·potassium R-3-hydroxybutyrate complex of Example 1, under a certain condition, KF moisture meter was used to determine the moisture contents at different time points.
as §1, with “3-hydroxybutyric” for “R-3-hydroxybutyric”, “3-hydroxybutyrate,” for “R-3-hydroxybutyrate,”, “3-hydroxybutyrate” for “R-3-hydroxybutyrate”, “7,” for “1,”
as §1, with “S-3-hydroxybutyric” for “R-3-hydroxybutyric”, “S-3-hydroxybutyrate,” for “R-3-hydroxybutyrate,”, “S-3-hydroxybutyrate” for “R-3-hydroxybutyrate”, “13,” for “1,”
as §1, with “calcium” for “potassium”, “acid·calcium” for “acid·potassium”, “19,” for “1,”
(§2) For 3-hydroxybutyric acid, calcium 3-hydroxybutyrate, mixture of 3-hydroxybutyric acid and calcium 3-hydroxybutyrate, and 3-hydroxybutyric acid·calcium 3-hydroxybutyrate complex of Example 25, under a certain condition, KF moisture meter was used to determine the moisture contents at different time points.
as §2, with “S-3-hydroxybutyric” for “3-hydroxybutyric”, “S-3-hydroxybutyrate,” for “3-hydroxybutyrate,”, “S-3-hydroxybutyrate” for “3-hydroxybutyrate”, “31,” for “25,”
as §1, with “magnesium” for “potassium”, “acid·magnesium” for “acid·potassium”, “37,” for “1,”
as §2, with “magnesium” for “calcium”, “acid·magnesium 3-hydroxy butyrate” for “acid·calcium 3-hydroxybutyrate”, “43,” for “25,”
For S-3-hydroxybutyric acid, magnesium S-3-hydroxybutyrate, mixture of S-3-hydroxybutyric acid and magnesium S-3-hydroxybutyrate, and S-3-hydroxybutyric acid·magnesium S-3-hydroxybutyrate complex of Example 49, under a certain condition, KF moisture meter was used to determine the moisture contents at different time points.
(§3) For R-3-hydroxypentanoic acid, sodium R-3-hydroxypentanoate, mixture of R-3-hydroxypentanoic acid and sodium R-3-hydroxypentanoate, and R-3-hydroxypentanoic acid·sodium R-3-hydroxypentanoate complex of Example 55, under a certain condition, KF moisture meter was used to determine the moisture contents at different time points.
as §3, with “3-hydroxypentanoic” for “R-3-hydroxypentanoic”, “3-hydroxypentanoate,” for “R-3-hydroxypentanoate,”, “3-hydroxypentanoate” for “R-3-hydroxypentanoate”, “61,” for “55,”
as §3, with “S-3-hydroxypentanoic” for “R-3-hydroxypentanoic”, “S-3-hydroxypentanoate,” for “R-3-hydroxypentanoate,”, “S-3-hydroxypentanoate” for “R-3-hydroxypentanoate”, “67,” for “55,”

[2] = Stability of complexes at 30-80° C.; type: physicochemical
Source text: For R-3-hydroxybutyric acid, potassium R-3-hydroxybutyrate, mixture of R-3-hydroxybutyric acid and potassium R-3-hydroxybutyrate, and R-3-hydroxybutyric acid·potassium R-3-hydroxybutyrate complex of Example 1, […]
For 3-hydroxybutyric acid, potassium 3-hydroxybutyrate, mixture of 3-hydroxybutyric acid and potassium 3-hydroxybutyrate, and 3-hydroxybutyric acid·potassium 3-hydroxybutyrate complex of Example 7, […]
For S-3-hydroxybutyric acid, potassium S-3-hydroxybutyrate, mixture of S-3-hydroxybutyric acid and potassium S-3-hydroxybutyrate, and S-3-hydroxybutyric acid·potassium S-3-hydroxybutyrate complex of Example 13, […]
For R-3-hydroxybutyric acid, calcium R-3-hydroxybutyrate, mixture of R-3-hydroxybutyric acid and calcium R-3-hydroxybutyrate, and R-3-hydroxybutyric acid·calcium R-3-hydroxybutyrate complex of Example 19, […]
For 3-hydroxybutyric acid, calcium 3-hydroxybutyrate, mixture of 3-hydroxybutyric acid and calcium 3-hydroxybutyrate, and 3-hydroxybutyric acid·calcium 3-hydroxybutyrate complex of Example 25, […]
For S-3-hydroxybutyric acid, calcium S-3-hydroxybutyrate, mixture of S-3-hydroxybutyric acid and calcium S-3-hydroxybutyrate, and S-3-hydroxybutyric acid·calcium S-3-hydroxybutyrate complex of Example 31, […]
For R-3-hydroxybutyric acid, magnesium R-3-hydroxybutyrate, mixture of R-3-hydroxybutyric acid and magnesium R-3-hydroxybutyrate, and R-3-hydroxybutyric acid·magnesium R-3-hydroxybutyrate complex of Example 37, […]
For 3-hydroxybutyric acid, magnesium 3-hydroxybutyrate, mixture of 3-hydroxybutyric acid and magnesium 3-hydroxybutyrate, and 3-hydroxybutyric acid·magnesium 3-hydroxybutyrate complex of Example 43, […]
For S-3-hydroxybutyric acid, magnesium S-3-hydroxybutyrate, mixture of S-3-hydroxybutyric acid and magnesium S-3-hydroxybutyrate, and S-3-hydroxybutyric acid·magnesium S-3-hydroxybutyrate complex of Example 49, […]
For R-3-hydroxypentanoic acid, sodium R-3-hydroxypentanoate, mixture of R-3-hydroxypentanoic acid and sodium R-3-hydroxypentanoate, and R-3-hydroxypentanoic acid·sodium R-3-hydroxypentanoate complex of Example 55, […]
For 3-hydroxypentanoic acid, sodium 3-hydroxypentanoate, mixture of 3-hydroxypentanoic acid and sodium 3-hydroxypentanoate, and 3-hydroxypentanoic acid·sodium 3-hydroxypentanoate complex of Example 61, […]
For S-3-hydroxypentanoic acid, sodium S-3-hydroxypentanoate, mixture of S-3-hydroxypentanoic acid and sodium S-3-hydroxypentanoate, and S-3-hydroxypentanoic acid·sodium S-3-hydroxypentanoate complex of Example 67, […]

Stability [2]	SMILES	moisture content (%) ([1]; 30 min)	moisture content (%) ([1]; 1 h)	moisture content (%) ([1]; 2 h)	moisture content (%) ([1]; 4 h)	moisture content (%) ([1]; 6 h)	moisture content (%) ([1]; 7 h)	moisture content (%) ([1]; 11 h)	moisture content (%) ([1]; 22 h)	Stability ([2]; 30° C.)	Stability ([2]; 40° C.)	Stability ([2]; 50° C.)	Stability ([2]; 60° C.)	Stability ([2]; 80° C.)	Stability ([2]; 70° C.)
	C[C@@H](O)CC(=O)O.C[C@@H](O)CC(=O)[O-].C[C@@H](O)CC(=O)[O-].[Ca+2] [R-3-hydroxybutyric acid·calcium R-3-hydroxybutyrate]	0.54%	1.02%	1.96%	3.26%	4.79%	5.39%	8.65%	14.45%	unchanged	unchanged	unchanged	unchanged	melted	
	C[C@@H](O)CC(=O)O.C[C@@H](O)CC(=O)[O-].C[C@@H](O)CC(=O)[O-].[Mg+2] [R-3-hydroxybutyric acid·magnesium R-3-hydroxybutyrate]	0.57%	0.92%	1.76%	3.16%	4.59%	5.69%	8.65%	14.45%	unchanged	unchanged	unchanged	unchanged	melted	
	C[C@@H](O)CC(=O)O.C[C@@H](O)CC(=O)[O-].[K+] [R-3-hydroxybutyric acid·potassium R-3-hydroxybutyrate]	0.64%	1.24%	1.89%	3.66%	5.89%	6.78%	9.77%	19.45%	unchanged	unchanged	unchanged	unchanged	melted	
unchanged	CC[C@@H](O)CC(=O)O.CC[C@@H](O)CC(=O)[O-].[Na+] [R-3-hydroxypentanoic acid·sodium R-3-hydroxypentanoate]	0.45%	0.85%	1.63%	2.72%	4.08%	4.49%	7.21%	14.54%						
	C[C@H](O)CC(=O)O [S-3-hydroxybutyric acid]	1.23%	2.28%	4.05%	6.32%	9.53%	10.62%	17.08%	32.95%	unchanged		melted	melted	melted	melted
	C[C@H](O)CC(=O)O.C[C@H](O)CC(=O)[O-].C[C@H](O)CC(=O)[O-].[Ca+2] [S-3-hydroxybutyric acid·calcium S-3-hydroxybutyrate]	0.52%	0.98%	1.88%	3.05%	4.47%	5.22%	8.41%	13.98%	unchanged	unchanged	unchanged	unchanged	melted	
	C[C@H](O)CC(=O)O.C[C@H](O)CC(=O)[O-].C[C@H](O)CC(=O)[O-].[Mg+2] [S-3-hydroxybutyric acid·magnesium S-3-hydroxybutyrate]	0.58%	0.98%	1.79%	3.16%	4.58%	5.64%	8.86%	14.74%	unchanged	unchanged	unchanged	unchanged	melted	
	C[C@H](O)CC(=O)O.C[C@H](O)CC(=O)[O-].[K+] [S-3-hydroxybutyric acid·potassium S-3-hydroxybutyrate]	0.72%	1.34%	196%	3.72%	5.99%	6.82%	9.83%	18.28%	unchanged	unchanged	unchanged	unchanged	melted	
unchanged	CC[C@H](O)CC(=O)O.CC[C@H](O)CC(=O)[O-].[Na+] [S-3-hydroxypentanoic acid·sodium S-3-hydroxypentanoate]	0.59%	1.15%	1.54%	2.73%	3.99%	4.43%	7.03%	14.11%						
unchanged	CCC(O)CC(=O)[O-].[Na+] (stereo not shown) [Sodium 3-hydroxypentanoate, sodium 3-hydroxypentanoate]	0.96%	1.83%	3.02%	4.46%	6.28%	6.96%	10.72%	20.79%						
unchanged	CC[C@@H](O)CC(=O)[O-].[Na+] [Sodium R-3-hydroxypentanoate, sodium R-3-hydroxypentanoate]	0.87%	1.68%	2.83%	4.36%	6.13%	6.70%	10.57%	20.57%						
